Measured values reported in US9315815B2, “Method of high-throughput sorting of high expression cell and cells sorted therefrom” (Taipei Medical University, priority 2013, dated 2016).

Experiments:
furin protease [1] = target: T1, furin protease (Homo sapiens, UniProt P09958); experiment: Secretion of anti-EGFR antibody by 293T/anti-EGFR cells with furin inhibitor; format: cell-based; settings: furin inhibitor added vs absent (FIG. 2A)
T1 construct: rich furin protease in Golgi can effectively cleave a furin cleavage site; endogenous in cells; host or cells: 293T/anti-EGFR (HEK-293 derived) cells
Text: (§1) (A) To detect the concentration of anti-EGFR antibody of 293T/anti-EGFR cell culture, Dec-RVKR-CMK was used as furin inhibitor. The Y axis represents concentration of the secreted anti-EGFR antibody, while the X axis represents cell groups. […] (B) To detect anti-EGFR Ab-RAKR-mB7 expression of 293T/anti-EGFR on cell membrane, FACS technology combined with FITC conjugated anti-human IgG antibody was used. The filled region represents 293T cells as control group; the solid line represents 293T/anti-EGFR cell without furin inhibitor; the dashed line represents 293T/anti-EGFR cell with furin inhibitor.
Take a humanized anti-EGFR antibody, for example; we transfected an anti-EGFR Ab-RAKR-mB7 gene into a human embryonic kidney cell with a Lentivirus vector to construct a 293T/anti-EGFR cell line. In the absence of a furin inhibitor (Dec-RVKR-CMK), said 293T/anti-EGFR can continuously secrete anti-EGFR antibody into extracellular matrix (see FIG. 2A).

furin protease [2] = target: T1, furin protease; experiment: FACS detection of anti-EGFR Ab-RAKR-mB7 on 293T/anti-EGFR cell membrane with furin inhibitor; format: cell-based; settings: 293T/anti-EGFR cells, furin inhibitor added, FITC anti-human IgG, FACS (FIG. 2B)
Text: as §1
The gene was transfected into mammalian cells (human embryonic kidney cells, HEK-293). Under normal conditions, rich furin protease in Golgi can effectively cleave a furin cleavage site ([…]) between anti-EGFR antibody and mB7 to allow secretion of the anti-EGFR antibody into an extracellular matrix. When furin inhibitor (DEC-RVKR-CMK) was added, to inhibit the activity of the furin protease, the anti-EGFR Ab-RAKR-mB7 would not be cleaved by furin protease and would be stably anchored on the cell membrane surface. Then, FITC-conjugated anti-human antibody was used to label the anti-EGFR Ab-RAKR-mB7 on the cell membranes. By using FACS, the cells with high expression of anti-EGFR Ab-RAKR-mB7 on their cell membranes can be rapidly and high-throughput sorted. […]

furin protease [3] = target: T2, furin protease (Cricetulus griseus, UniProt A0A9J7CGZ7); experiment: FACS detection of PCD-GB-RAKR-mB7 on LEC1/PCD-GB cell membrane with furin inhibitor; format: cell-based, Chinese Hamster; settings: LEC1/PCD-GB cells, furin inhibitor added, anti-myc antibody, FACS (FIG. 6B)
T2 construct: rich furin protease in Golgi can effectively cleave furin cleavage site; endogenous in cells; host or cells: LEC1/PCD-GB (CHO Lec1) cells
Text: (A) To detect the expression of PCD-GB recombinant protein in LEC1 and LEC1/PCD-GB cells, Western blot technique accompanied with mouse anti-myc antibody and goat anti-mouse IgG-HRP was used. (B) Furin inhibitor (Dec-RVKR-CMK) was used to inhibit the furin activity of LEC1 and LEC1/PCD-GB cells. Then, to detect the expression of PCD-GB-RAKR-mB7 on cell membrane, FACS technology accompanied with mouse anti-myc antibody and goat anti-mouse IgG-HRP was used. The filled region represents LEC1 cells as control group; solid line represents LEC1/PCD-GB cells without furin inhibitor; dashed line represents LEC1/PCD-GB cells with furin inhibitor. (C) The X axis represents the expression of PCD-GB-RAKR-mB7 on cell membrane (mean relative fluorescence intensity). The Y axis represents the production of PCD-GB stored in lysosomes. Each dot represents a single individual LEC1/PCD-GB cell.
Example 2 exemplifies a perforin-granzyme fusion protein (PCD-GB) which is expressed in lysosome. […] The gene was transfected into mammalian cells (Chinese Hamster Ovary cells, LEC1). Under normal conditions, rich furin protease in Golgi can effectively cleave furin cleavage site ([…]) between PCD-GB and mB7 so that PCD-GB would be stored in lysosome. […]

T1 sequence (P09958 108-794): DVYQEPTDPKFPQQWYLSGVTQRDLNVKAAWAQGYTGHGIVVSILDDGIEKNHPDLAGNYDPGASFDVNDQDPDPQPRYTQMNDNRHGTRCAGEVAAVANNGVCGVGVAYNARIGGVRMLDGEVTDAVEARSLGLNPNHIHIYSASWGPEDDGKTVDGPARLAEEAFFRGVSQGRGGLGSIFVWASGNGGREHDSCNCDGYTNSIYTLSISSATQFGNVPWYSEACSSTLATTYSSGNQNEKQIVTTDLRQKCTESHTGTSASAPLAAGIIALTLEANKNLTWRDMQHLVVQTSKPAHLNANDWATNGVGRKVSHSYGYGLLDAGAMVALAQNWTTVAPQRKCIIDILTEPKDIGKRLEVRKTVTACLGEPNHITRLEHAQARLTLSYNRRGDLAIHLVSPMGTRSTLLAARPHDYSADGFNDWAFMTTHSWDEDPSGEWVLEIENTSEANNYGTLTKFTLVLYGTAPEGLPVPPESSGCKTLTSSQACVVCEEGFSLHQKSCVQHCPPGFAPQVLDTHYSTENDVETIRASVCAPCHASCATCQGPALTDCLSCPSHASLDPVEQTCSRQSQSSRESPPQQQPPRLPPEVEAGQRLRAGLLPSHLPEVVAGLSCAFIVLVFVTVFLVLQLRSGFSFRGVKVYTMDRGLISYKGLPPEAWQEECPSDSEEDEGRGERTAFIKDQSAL
T2 sequence (A0A9J7CGZ7 27-794): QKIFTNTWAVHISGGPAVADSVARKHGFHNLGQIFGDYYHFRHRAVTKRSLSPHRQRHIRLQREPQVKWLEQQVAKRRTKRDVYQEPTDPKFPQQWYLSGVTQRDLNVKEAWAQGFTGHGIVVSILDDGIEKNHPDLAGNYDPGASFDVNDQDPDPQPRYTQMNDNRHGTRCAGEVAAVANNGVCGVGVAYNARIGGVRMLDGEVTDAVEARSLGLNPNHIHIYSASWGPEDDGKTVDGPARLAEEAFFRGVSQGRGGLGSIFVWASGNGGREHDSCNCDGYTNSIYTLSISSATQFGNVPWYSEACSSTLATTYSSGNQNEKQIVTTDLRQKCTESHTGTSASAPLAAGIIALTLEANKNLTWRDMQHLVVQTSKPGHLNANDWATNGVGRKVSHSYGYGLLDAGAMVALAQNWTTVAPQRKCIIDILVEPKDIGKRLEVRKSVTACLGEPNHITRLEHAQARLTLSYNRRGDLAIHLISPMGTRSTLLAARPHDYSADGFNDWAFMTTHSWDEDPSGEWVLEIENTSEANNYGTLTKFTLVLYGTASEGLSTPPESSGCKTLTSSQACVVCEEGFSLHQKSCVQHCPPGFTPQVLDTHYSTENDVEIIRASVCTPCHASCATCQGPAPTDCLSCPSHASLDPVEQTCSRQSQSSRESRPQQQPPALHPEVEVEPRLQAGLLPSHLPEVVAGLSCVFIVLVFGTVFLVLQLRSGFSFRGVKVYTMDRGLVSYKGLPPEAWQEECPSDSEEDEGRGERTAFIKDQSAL

With Dec-RVKR-CMK the “secretion of anti-EGFR antibody” value (furin protease [1]) was “decreased secretion of anti-EGFR antibody”, the “expression of anti-EGFR Ab-RAKR-mB7 on cell membrane” value (furin protease [2]) was “expression of anti-EGFR Ab-RAKR-mB7 was on the cell membrane” and the “PCD-GB-RAKR-mB7 detected on cell membrane” value (furin protease [3]) was “few PCD-GB-RAKR-mB7 would be detected on the LEC1/PCD-GB cell membrane”.
